Experiment [1] concerns the target T1, Muscarinic acetylcholine receptor M1 (Homo sapiens, UniProt P11229).
T1 sequence (P11229 whole entry): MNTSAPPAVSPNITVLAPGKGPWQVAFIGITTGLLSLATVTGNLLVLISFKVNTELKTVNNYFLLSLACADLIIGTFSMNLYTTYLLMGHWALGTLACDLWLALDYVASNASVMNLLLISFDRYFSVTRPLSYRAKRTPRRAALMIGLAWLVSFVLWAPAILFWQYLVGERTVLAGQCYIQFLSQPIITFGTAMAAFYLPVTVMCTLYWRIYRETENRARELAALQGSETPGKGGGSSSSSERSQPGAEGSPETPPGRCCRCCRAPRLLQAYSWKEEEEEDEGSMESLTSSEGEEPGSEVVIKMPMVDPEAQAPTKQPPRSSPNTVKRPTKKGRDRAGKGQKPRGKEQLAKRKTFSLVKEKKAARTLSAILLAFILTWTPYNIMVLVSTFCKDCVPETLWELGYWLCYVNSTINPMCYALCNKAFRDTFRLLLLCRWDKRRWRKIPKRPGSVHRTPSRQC
Type of experiment: functional.

Experiment [2] concerns the target T2, Equilibrative nucleoside transporter 1 (Homo sapiens, UniProt Q99808).
T2 sequence (Q99808 whole entry): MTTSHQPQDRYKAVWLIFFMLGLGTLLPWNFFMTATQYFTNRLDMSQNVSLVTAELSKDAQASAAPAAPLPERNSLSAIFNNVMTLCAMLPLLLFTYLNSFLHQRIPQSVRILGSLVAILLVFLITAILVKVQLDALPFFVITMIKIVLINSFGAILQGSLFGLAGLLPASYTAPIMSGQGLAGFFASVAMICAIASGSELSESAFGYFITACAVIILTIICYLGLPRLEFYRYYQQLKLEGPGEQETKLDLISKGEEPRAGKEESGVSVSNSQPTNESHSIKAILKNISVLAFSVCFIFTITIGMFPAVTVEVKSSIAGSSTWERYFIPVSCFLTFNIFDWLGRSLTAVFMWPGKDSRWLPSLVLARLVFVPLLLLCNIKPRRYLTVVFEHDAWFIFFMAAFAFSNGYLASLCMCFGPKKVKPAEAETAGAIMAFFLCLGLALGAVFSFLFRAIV

The target in experiment [3] is T3, Alpha-2C adrenergic receptor (Homo sapiens, UniProt P18825).
T3 sequence (P18825 whole entry): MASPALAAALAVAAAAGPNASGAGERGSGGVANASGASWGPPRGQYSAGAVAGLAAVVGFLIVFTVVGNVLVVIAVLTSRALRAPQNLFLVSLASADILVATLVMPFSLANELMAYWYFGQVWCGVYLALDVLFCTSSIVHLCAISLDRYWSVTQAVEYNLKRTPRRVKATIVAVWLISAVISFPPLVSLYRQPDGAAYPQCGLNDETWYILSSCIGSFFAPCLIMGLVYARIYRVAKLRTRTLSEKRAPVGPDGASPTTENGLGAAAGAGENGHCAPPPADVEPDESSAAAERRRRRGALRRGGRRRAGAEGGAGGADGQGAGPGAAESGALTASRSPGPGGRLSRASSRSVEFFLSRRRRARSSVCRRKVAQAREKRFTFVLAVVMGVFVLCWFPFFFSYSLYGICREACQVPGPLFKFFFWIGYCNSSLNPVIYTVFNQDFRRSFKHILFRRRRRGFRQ
Type of experiment: functional.

In a further experiment the target is D(1A) dopamine receptor (Homo sapiens, UniProt P21728). Type of experiment: functional, cell-based.
The target of experiment [4] is 5-hydroxytryptamine receptor 2B (Homo sapiens, UniProt P41595). Type of experiment: functional, cell-based.
Experiment [5] deals with 3',5'-cyclic-AMP phosphodiesterase 4D (Homo sapiens, UniProt Q08499). The experiment is classed as functional.
The target in experiment [6] is Gamma-aminobutyric acid receptor subunit alpha-1 (Rattus norvegicus, UniProt P62813).
The target in another experiment is Vasopressin V1a receptor (Homo sapiens, UniProt P37288).
For a further experiment, the target named is T4, Estrogen receptor (Homo sapiens, UniProt P03372).
T4 sequence (P03372 whole entry): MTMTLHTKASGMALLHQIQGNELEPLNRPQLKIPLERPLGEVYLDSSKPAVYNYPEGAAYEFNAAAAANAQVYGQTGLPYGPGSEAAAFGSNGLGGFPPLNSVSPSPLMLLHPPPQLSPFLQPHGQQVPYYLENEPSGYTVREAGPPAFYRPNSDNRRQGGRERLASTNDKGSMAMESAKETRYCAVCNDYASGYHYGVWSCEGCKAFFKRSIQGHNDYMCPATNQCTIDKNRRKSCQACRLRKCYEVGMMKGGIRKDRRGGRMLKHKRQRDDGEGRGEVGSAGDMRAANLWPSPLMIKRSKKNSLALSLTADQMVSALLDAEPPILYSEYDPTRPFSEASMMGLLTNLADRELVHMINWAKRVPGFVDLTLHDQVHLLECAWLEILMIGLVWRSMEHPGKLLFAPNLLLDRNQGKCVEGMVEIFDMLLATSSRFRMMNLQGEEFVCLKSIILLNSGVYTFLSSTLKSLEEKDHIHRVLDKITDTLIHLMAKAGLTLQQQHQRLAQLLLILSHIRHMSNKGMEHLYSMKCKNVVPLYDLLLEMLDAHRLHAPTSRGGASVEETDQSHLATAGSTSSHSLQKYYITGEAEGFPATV

Experiment [7] deals with Sodium-dependent dopamine transporter (Homo sapiens, UniProt Q01959).
In experiment [8] the target is T5, Type-1 angiotensin II receptor (Homo sapiens, UniProt P30556).
T5 sequence (P30556 whole entry): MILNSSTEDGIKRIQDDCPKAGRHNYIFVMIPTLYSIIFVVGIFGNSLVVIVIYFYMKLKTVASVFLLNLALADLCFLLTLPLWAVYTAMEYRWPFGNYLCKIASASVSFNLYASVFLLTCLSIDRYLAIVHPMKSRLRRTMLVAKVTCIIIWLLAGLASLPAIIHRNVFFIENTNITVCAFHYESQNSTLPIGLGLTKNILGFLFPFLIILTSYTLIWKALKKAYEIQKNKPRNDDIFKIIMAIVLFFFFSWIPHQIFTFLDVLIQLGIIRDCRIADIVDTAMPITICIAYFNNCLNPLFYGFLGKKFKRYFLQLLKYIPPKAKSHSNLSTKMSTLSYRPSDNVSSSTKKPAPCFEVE

In the next experiment the target is Histamine H3 receptor (Homo sapiens, UniProt Q9Y5N1).
For experiment [9], the target named is Voltage-gated inwardly rectifying potassium channel KCNH2 (Homo sapiens, UniProt Q12809). Type of experiment: functional. Particulars: read-out: AC50.

From ChEMBL document CHEMBL5291721, “A preclinical secondary pharmacology resource illuminates target-adverse drug reaction associations of marketed drugs” (Nat Commun, 2023) come the findings set out here.
Also: assay procedure not described here.

Vasopressin V1a receptor, sequence (P37288 whole entry): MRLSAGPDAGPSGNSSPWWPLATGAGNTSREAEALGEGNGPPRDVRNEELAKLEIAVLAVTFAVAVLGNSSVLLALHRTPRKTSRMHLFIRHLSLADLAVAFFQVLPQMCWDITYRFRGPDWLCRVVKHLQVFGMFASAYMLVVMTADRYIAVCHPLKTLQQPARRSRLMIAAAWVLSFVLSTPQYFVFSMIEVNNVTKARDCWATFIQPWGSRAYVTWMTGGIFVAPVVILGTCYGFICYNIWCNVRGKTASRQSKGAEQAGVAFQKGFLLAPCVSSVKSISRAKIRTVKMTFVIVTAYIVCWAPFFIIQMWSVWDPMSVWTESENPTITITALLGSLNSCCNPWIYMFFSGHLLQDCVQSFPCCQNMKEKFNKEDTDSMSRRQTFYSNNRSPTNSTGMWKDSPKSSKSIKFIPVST
5-hydroxytryptamine receptor 2B, sequence (P41595 whole entry): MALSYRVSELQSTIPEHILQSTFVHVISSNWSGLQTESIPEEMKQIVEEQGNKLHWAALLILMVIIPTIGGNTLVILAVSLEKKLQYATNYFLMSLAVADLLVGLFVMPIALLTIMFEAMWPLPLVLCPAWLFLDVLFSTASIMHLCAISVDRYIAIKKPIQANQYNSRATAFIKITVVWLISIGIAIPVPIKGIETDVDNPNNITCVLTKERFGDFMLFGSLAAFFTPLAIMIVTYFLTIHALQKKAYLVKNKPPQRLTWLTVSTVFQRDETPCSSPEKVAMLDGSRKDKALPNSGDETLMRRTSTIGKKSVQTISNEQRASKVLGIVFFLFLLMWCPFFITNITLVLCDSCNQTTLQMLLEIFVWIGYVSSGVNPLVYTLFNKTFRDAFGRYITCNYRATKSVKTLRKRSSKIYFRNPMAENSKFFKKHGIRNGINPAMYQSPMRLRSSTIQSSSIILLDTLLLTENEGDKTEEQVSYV
Gamma-aminobutyric acid receptor subunit alpha-1, sequence (P62813 whole entry): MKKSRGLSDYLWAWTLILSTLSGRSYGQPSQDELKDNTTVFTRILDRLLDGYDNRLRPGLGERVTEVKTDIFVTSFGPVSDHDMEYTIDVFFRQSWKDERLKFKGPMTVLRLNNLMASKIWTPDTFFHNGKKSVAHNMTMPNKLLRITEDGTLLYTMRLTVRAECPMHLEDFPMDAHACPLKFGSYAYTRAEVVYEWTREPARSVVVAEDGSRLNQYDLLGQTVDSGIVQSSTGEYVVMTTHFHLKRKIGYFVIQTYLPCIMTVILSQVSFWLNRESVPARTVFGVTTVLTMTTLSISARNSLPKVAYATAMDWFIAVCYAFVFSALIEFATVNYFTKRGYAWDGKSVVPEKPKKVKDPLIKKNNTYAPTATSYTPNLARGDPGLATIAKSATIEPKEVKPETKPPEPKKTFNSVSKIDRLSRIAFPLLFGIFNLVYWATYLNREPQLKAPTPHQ
3',5'-cyclic-AMP phosphodiesterase 4D, sequence (Q08499 whole entry): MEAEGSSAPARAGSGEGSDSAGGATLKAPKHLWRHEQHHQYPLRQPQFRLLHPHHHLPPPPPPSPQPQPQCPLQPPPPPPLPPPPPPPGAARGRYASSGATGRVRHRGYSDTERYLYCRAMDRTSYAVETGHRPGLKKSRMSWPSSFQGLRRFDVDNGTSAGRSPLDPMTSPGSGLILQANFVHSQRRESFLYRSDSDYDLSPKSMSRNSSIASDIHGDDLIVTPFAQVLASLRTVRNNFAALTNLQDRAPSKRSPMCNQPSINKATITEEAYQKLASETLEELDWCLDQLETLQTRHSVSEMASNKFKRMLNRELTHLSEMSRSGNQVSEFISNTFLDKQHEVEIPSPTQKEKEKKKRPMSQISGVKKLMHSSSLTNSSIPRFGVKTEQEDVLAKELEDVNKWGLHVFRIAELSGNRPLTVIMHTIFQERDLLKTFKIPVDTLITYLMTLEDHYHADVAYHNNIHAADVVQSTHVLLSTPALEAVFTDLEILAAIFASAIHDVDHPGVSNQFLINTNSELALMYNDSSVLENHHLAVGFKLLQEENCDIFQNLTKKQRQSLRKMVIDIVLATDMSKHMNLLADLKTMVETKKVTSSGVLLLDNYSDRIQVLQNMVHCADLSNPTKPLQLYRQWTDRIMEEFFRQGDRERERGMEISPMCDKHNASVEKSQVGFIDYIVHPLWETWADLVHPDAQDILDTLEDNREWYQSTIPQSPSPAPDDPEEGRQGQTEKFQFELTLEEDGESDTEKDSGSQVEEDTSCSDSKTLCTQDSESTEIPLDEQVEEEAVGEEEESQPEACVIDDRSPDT
Histamine H3 receptor, sequence (Q9Y5N1 whole entry): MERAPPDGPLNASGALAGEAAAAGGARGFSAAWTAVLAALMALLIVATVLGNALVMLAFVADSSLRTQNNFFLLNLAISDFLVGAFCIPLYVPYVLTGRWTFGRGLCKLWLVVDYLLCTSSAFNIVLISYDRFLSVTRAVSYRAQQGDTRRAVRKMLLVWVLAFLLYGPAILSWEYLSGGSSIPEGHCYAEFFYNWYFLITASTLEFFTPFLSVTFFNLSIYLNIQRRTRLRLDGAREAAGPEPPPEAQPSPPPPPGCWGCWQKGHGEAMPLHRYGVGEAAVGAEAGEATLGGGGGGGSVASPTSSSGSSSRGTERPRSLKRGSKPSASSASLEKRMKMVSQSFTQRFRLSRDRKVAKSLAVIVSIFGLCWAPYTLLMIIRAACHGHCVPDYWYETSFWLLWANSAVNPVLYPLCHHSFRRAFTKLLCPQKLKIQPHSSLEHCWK
D(1A) dopamine receptor, sequence (P21728 whole entry): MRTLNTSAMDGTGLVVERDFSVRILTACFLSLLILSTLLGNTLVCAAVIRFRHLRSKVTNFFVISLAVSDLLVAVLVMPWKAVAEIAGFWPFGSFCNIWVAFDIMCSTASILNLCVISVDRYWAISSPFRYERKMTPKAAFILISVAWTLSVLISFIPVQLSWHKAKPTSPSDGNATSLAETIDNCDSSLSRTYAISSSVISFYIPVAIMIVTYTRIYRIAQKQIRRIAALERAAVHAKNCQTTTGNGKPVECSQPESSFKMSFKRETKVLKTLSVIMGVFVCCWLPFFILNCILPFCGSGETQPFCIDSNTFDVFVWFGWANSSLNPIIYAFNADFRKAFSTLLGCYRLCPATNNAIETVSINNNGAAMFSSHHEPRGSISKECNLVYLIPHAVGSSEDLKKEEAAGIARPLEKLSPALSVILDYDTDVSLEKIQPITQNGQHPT
Sodium-dependent dopamine transporter, sequence (Q01959 whole entry): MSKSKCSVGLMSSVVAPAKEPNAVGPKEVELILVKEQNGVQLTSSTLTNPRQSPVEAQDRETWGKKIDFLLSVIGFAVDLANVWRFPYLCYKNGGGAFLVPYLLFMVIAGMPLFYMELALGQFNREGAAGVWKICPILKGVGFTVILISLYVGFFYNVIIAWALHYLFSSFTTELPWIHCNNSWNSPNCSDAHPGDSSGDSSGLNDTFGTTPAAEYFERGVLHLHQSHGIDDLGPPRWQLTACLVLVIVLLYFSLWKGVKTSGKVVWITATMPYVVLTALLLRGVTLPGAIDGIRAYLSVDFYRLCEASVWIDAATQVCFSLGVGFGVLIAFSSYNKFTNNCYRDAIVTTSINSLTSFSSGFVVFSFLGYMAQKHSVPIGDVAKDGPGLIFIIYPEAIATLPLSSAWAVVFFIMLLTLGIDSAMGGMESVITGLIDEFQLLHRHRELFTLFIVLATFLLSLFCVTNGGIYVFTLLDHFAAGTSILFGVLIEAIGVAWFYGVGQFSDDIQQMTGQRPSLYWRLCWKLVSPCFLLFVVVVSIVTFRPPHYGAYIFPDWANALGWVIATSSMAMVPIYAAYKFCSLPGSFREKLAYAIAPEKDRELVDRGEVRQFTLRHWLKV
Voltage-gated inwardly rectifying potassium channel KCNH2, sequence (Q12809 whole entry): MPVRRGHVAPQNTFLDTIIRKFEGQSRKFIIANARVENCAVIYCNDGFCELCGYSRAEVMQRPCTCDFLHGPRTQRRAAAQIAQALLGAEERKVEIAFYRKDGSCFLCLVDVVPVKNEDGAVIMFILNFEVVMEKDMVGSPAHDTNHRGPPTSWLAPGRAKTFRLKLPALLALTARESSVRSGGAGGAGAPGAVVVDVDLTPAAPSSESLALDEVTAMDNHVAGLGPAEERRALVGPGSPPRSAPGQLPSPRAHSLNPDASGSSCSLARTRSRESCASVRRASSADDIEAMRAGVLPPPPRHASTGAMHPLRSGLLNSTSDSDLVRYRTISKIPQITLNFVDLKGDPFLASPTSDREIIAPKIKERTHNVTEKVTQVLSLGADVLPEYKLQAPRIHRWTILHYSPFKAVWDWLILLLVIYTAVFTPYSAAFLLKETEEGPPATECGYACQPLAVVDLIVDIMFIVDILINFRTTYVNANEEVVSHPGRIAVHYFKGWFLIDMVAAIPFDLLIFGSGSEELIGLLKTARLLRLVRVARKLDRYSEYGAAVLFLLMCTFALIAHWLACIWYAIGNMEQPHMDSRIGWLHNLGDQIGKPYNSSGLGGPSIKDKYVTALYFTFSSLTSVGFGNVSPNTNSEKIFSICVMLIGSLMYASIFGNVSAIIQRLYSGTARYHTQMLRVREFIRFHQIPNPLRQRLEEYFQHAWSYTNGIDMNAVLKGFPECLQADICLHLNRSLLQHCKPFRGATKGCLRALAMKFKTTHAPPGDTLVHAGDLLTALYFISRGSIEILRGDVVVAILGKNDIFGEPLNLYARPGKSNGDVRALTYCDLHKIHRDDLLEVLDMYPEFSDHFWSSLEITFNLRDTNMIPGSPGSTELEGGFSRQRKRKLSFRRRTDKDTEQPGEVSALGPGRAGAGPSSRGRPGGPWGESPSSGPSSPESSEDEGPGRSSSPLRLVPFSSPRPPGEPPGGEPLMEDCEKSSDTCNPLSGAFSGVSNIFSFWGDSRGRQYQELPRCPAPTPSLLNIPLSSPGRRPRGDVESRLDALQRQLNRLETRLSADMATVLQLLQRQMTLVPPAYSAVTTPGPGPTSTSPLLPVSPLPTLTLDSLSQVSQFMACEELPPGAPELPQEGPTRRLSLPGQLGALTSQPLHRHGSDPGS

For `CCCN(CC)C(CC)C(=O)Nc1c(C)cccc1C` (stereo not given) [ETIDOCAINE], the concentration at half-maximal activity (AC50) (in [1]; in experiment [2]; in [3]; on D(1A) dopamine receptor; in [4]; in [5]) was above 30 µM in each case. Also, the half-maximal activity concentration (AC50) (in experiment [6]; at Vasopressin V1a receptor; on Estrogen receptor; in [7]; in [8]; at Histamine H3 receptor) was above 30 µM in each case. Besides, in [9], the concentration at half-maximal activity (AC50) was above 30 µM.

Take `Nc1nc(F)nc2c1ncn2[C@@H]1O[C@H](COP(=O)(O)O)[C@@H](O)[C@@H]1O` [FLUDARABINE PHOSPHATE]: the concentration at half-maximal activity (AC50) (in experiment [1]; in experiment [2]; in experiment [3]; at D(1A) dopamine receptor; in experiment [4]; in experiment [5]) was above 30 µM in each case. The AC50 (in experiment [6]; at Vasopressin V1a receptor; at Estrogen receptor; in experiment [7]; in experiment [8]; at Histamine H3 receptor) was above 30 µM throughout. Also, the concentration at half-maximal activity (AC50) in experiment [9] is above 30 µM.

As to `O=C(O)c1ccccc1Nc1cccc(C(F)(F)F)c1` [FLUFENAMIC ACID], the AC50 was 0.54 µM in [1]; above 30 µM in [2]; above 10 µM in experiment [3]; above 10 µM on D(1A) dopamine receptor; above 30 µM in [4]; above 30 µM in [5]. For the same compound, the half-maximal activity concentration (AC50) in [6] was above 10 µM; at Vasopressin V1a receptor, above 30 µM; at Estrogen receptor it was above 30 µM; in experiment [7], above 30 µM; in [8], above 30 µM; at Histamine H3 receptor, above 10 µM. The concentration at half-maximal activity (AC50) in experiment [9] is above 30 µM.

As to `CCCCCCOC(=O)CCC(=O)CN` [HEXAMINOLEVULINATE], the AC50 (in [1]; in [2]; in [3]; on D(1A) dopamine receptor; in [4]; in experiment [5]) was above 30 µM in each case. Besides, the AC50 (in experiment [6]; on Vasopressin V1a receptor; on Estrogen receptor; in experiment [7]; in experiment [8]; at Histamine H3 receptor) was above 30 µM throughout. Further, the AC50 in experiment [9] is above 30 µM.

Take `CCCC[C@H](C)C[C@H](O)/C=C/[C@H]1[C@H](O)CC(=O)[C@@H]1CCCC/C=C/C(=O)O` [LIMAPROST]: the half-maximal activity concentration (AC50) (in experiment [1]; in experiment [2]; in experiment [3]; at D(1A) dopamine receptor; in experiment [4]; in experiment [5]) was above 30 µM in each case. The AC50 (in experiment [6]; on Vasopressin V1a receptor; at Estrogen receptor; in [7]; in experiment [8]; at Histamine H3 receptor) was above 30 µM each time. For the same compound, the AC50 in experiment [9] was above 30 µM.

Turning to `Cc1ccc(NC(=O)C2(c3ccc4c(c3)OC(F)(F)O4)CC2)nc1-c1cccc(C(=O)O)c1` [LUMACAFTOR], the concentration at half-maximal activity (AC50) in experiment [1] is above 30 µM; in experiment [2] it was above 30 µM; in experiment [3], above 30 µM; at D(1A) dopamine receptor it was above 30 µM; in experiment [4], above 30 µM; in [5] it was 15 µM. The AC50 (in experiment [6]; on Vasopressin V1a receptor; at Estrogen receptor; in experiment [7]; in experiment [8]; on Histamine H3 receptor) was above 30 µM throughout. In experiment [9], the concentration at half-maximal activity (AC50) was above 30 µM.

In the case of `CN(c1nccc(=O)[nH]1)C1CCN(c2nc3ccccc3n2Cc2ccc(F)cc2)CC1` [MIZOLASTINE], the concentration at half-maximal activity (AC50) in experiment [1] was 0.011 µM; in experiment [2] it was above 30 µM; in experiment [3] it was above 30 µM; at D(1A) dopamine receptor, above 30 µM; in experiment [4] it was above 30 µM; in [5], 13 µM. Moreover, the AC50 (in experiment [6]; at Vasopressin V1a receptor; on Estrogen receptor; in experiment [7]; in experiment [8]; at Histamine H3 receptor) was above 30 µM each time. For the same compound, the AC50 in [9] is 3.34 µM.

For `CCOC(=O)Nc1ccc2c(c1)N(C(=O)CCN1CCOCC1)c1ccccc1S2` [MORICIZINE], the half-maximal activity concentration (AC50) in experiment [1] is 22 µM; in experiment [2], above 30 µM; in experiment [3] it was above 30 µM; on D(1A) dopamine receptor it was above 30 µM; in experiment [4] it was above 30 µM; in experiment [5] it was 0.77 µM. Further, the half-maximal activity concentration (AC50) (in experiment [6]; at Vasopressin V1a receptor; on Estrogen receptor; in [7]; in experiment [8]; at Histamine H3 receptor) was above 30 µM throughout. The AC50 in experiment [9] is 19 µM.

As to `CC(CCc1ccccc1)NC(C)C(O)c1ccc(O)cc1` (stereo not given) [NYLIDRIN], the half-maximal activity concentration (AC50) in experiment [1] is above 10 µM; in [2] it was above 30 µM; in experiment [3] it was 0.64 µM; on D(1A) dopamine receptor, above 10 µM; in [4] it was above 10 µM; in experiment [5], above 30 µM. Further, the concentration at half-maximal activity (AC50) in experiment [6] is above 10 µM; at Vasopressin V1a receptor, above 10 µM; on Estrogen receptor, above 30 µM; in experiment [7] it was 1.44 µM; in experiment [8], above 30 µM; on Histamine H3 receptor, above 10 µM. The half-maximal activity concentration (AC50) in [9] came out at 6.3 µM.

Take `CC1(C)C(C=C(Cl)Cl)C1C(=O)OCc1cccc(Oc2ccccc2)c1` (stereo not given) [PERMETHRIN]: the AC50 in experiment [1] was above 10 µM; in experiment [2], above 10 µM; in experiment [3] it was above 10 µM; at D(1A) dopamine receptor, above 10 µM; in experiment [4], above 10 µM; in experiment [5], above 30 µM. Also, the concentration at half-maximal activity (AC50) is above 10 µM in experiment [6]; above 10 µM at Vasopressin V1a receptor; above 30 µM on Estrogen receptor; above 10 µM in experiment [7]; above 10 µM in experiment [8]; above 10 µM on Histamine H3 receptor. The AC50 in [9] was above 30 µM.

As usually defined, the AC50 is the concentration giving half of the maximal activity seen.
